Reference: the supplement of paper PMC10307832

Assays:
Test in all cases: relative viability (nuclei count vs DMSO), 5 days (fraction); higher = more cells survive
SW 900 = tested on: SW 900
In short: (§1)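 Five library-drug doses in √10 steps were combined with a fixed anchor-drug dose, or a single drug was given alone, by pin tool to lung cancer cell lines in 1536-well plates the day after seeding. Nuclei were stained and counted after 5 days. Relative viability is the nuclei count in treated wells over that in vehicle wells, taken as the median of duplicate plates.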

LCLC-97TM1 = tested on: LCLC-97TM1
In short: as §1

HCC-44 = tested on: HCC-44
In short: as §1

LK-2 = tested on: LK-2
In short: as §1

NCI-H1650 = tested on: NCI-H1650
In short: as §1

NCI-H2347 = tested on: NCI-H2347
In short: as §1

A-427 = tested on: A-427
In short: as §1

201T = tested on: 201T
In short: as §1

NCI-H596 = tested on: NCI-H596
In short: as §1

LC-2-ad = tested on: LC-2-ad
In short: as §1

NCI-H460 = tested on: NCI-H460
In short: as §1

Compound: O=c1cc(N2CCOCC2)oc2c(-c3cccc4c3sc3ccccc34)cccc12 + Nc1nc2[nH]cc(CCc3ccc(C(=O)N[C@@H](CCC(=O)O)C(=O)O)cc3)c2c(=O)[nH]1 [Pemetrexed] (partner 0.2 µM)
- relative viability (SW 900; first compound 0.03162 µM): 0.452
- relative viability (SW 900; first compound 0.1 µM): 0.425
- relative viability (SW 900; first compound 0.3162 µM): 0.51
- relative viability (SW 900; first compound 1 µM): 0.507
- relative viability (LCLC-97TM1; first compound 0.01 µM): 0.189
- relative viability (LCLC-97TM1; first compound 0.03162 µM): 0.162
- relative viability (LCLC-97TM1; first compound 0.1 µM): 0.202
- relative viability (LCLC-97TM1; first compound 0.3162 µM): 0.162
- relative viability (LCLC-97TM1; first compound 1 µM): 0.177
- relative viability (HCC-44; first compound 0.01 µM): 0.667
- relative viability (HCC-44; first compound 0.03162 µM): 0.643
- relative viability (HCC-44; first compound 0.1 µM): 0.587
- relative viability (HCC-44; first compound 0.3162 µM): 0.591
- relative viability (HCC-44; first compound 1 µM): 0.664
- relative viability (LK-2; first compound 0.01 µM): 0.278
- relative viability (LK-2; first compound 0.03162 µM): 0.238
- relative viability (LK-2; first compound 0.1 µM): 0.296
- relative viability (LK-2; first compound 0.3162 µM): 0.238
- relative viability (LK-2; first compound 1 µM): 0.275
- relative viability (NCI-H1650; first compound 0.01 µM): 0.397
- relative viability (NCI-H1650; first compound 0.03162 µM): 0.374
- relative viability (NCI-H1650; first compound 0.1 µM): 0.35
- relative viability (NCI-H1650; first compound 0.3162 µM): 0.341
- relative viability (NCI-H1650; first compound 1 µM): 0.34
- relative viability (NCI-H2347; first compound 0.01 µM): 0.458
- relative viability (NCI-H2347; first compound 0.03162 µM): 0.472
- relative viability (NCI-H2347; first compound 0.1 µM): 0.415
- relative viability (NCI-H2347; first compound 0.3162 µM): 0.433
- relative viability (NCI-H2347; first compound 1 µM): 0.44
- relative viability (A-427; first compound 0.01 µM): 0.944
- relative viability (A-427; first compound 0.03162 µM): 1.01
- relative viability (A-427; first compound 0.1 µM): 0.954
- relative viability (A-427; first compound 0.3162 µM): 0.993
- relative viability (A-427; first compound 1 µM): 0.945
- relative viability (201T; first compound 0.01 µM): 0.326
- relative viability (201T; first compound 0.03162 µM): 0.316
- relative viability (201T; first compound 0.1 µM): 0.338
- relative viability (201T; first compound 0.3162 µM): 0.397
- relative viability (201T; first compound 1 µM): 0.359
- relative viability (NCI-H596; first compound 0.01 µM): 0.452
- relative viability (NCI-H596; first compound 0.03162 µM): 0.521
- relative viability (NCI-H596; first compound 0.1 µM): 0.528
- relative viability (NCI-H596; first compound 0.3162 µM): 0.517
- relative viability (NCI-H596; first compound 1 µM): 0.482
- relative viability (LC-2-ad; first compound 0.01 µM): 0.267
- relative viability (LC-2-ad; first compound 0.03162 µM): 0.284
- relative viability (LC-2-ad; first compound 0.1 µM): 0.282
- relative viability (LC-2-ad; first compound 0.3162 µM): 0.279
- relative viability (LC-2-ad; first compound 1 µM): 0.304
- relative viability (NCI-H460; first compound 0.01 µM): 0.0597
- relative viability (NCI-H460; first compound 0.03162 µM): 0.0598
- relative viability (NCI-H460; first compound 0.1 µM): 0.0653
- relative viability (NCI-H460; first compound 0.3162 µM): 0.0653
- relative viability (NCI-H460; first compound 1 µM): 0.0594
